Measurements taken from patent US11841360B1, “Systems, devices, and methods for ex vivo assessment of responses to multiple therapeutic agents” (Oregon Health & Science University, priority 2018, dated 2023).

Legend:
[1] = tested on: immunocompetent mouse models of triple negative and HER2+ breast cancer with late stage spontaneously developing tumors; experiment: MNA small scale screening using 5 FDA approved drugs, CC3 and multiplex IHC; assay type: in vivo; conditions: for infiltration of cytotoxic neutrophils: mIHC close to the drug releasing well
Description: Panobinostat induces immunogenic cell death associated with Neuropilin-1 neutrophil infiltration: We have developed a novel pre-clinical model system—the Multiplex Nanodose Assay (MNA)—that enables a comprehensive single cell analysis of drug-mediated effects in complex tumor microenvironment (TME). The MNA is based on a recently developed implantable microdevice that performs drug sensitivity testing of multiple drugs at once inside a living tissue (FIGS. 18A and 18B) (Jonas et al., Sci Transl Med 7:284ra57, 2015; Watson et al., Cell Syst 1-14, 2018, doi.org/10.1016/j.cels.2018.02.001). The drugs are passively released into distinct tumor regions and we analyze the drug mediated effects in close proximity to the drug releasing well by multiplex immunohistochemistry (mIHC) (FIG. 18C). This is a sequential IHC staining on a single formalin fixed paraffin embedded (FFPE) tissue for multiparametric characterization of single cells similar to flow cytometry, except that the cells are studies in their natural intact environment (Tsujikawa et al., Cell Rep 19:203-17, 2017; Chang et al., Proc Annu Int Conf IEEE Eng Med Biol Soc EMBS. 4046-9, 2017). The spatial relation of the functionally different populations facilitates identification of the drug-mediated cellular mechanisms. This knowledge can be then translated to rapidly identify rational combination treatment strategies.
With the MNA, we have performed a small scale screening using 5 FDA approved drugs in immunocompetent mouse models of triple negative and HER2+ breast cancer with late stage spontaneously developing tumors. […]
Since panobinostat-mediated effects in vivo are likely linked to effective anti-tumor immunity and increased response to PD-1 blockade therapy, we took a closer look at the immediate interaction between dying tumor cells and tumor microenvironment. […] In the multiplex readout panel, we incorporated stains that interrogate basic drug-sensitivity testing, epithelial, mesenchymal, endothelial compartment, but mainly multiple markers of immune composition and activity. […]

MMTV-PyMT tumors = experiment: Multiplex nanodose assay (MNA): implantable microdevice in tumor, CC3/MHC-I IHC and multiplex IHC adjacent to the drug-releasing well; assay type: in vivo, mouse; conditions: mIHC, 3 days
Description: Multiplex nanodose assay (MNA) system and translation to breast cancer patients: The illustrated microdevice (FIG. 6A) is a non-toxic 4×0.8 mm resin cylinder with eighteen 200 μm deep reservoirs, that are packed with active compounds (drugs or drug combinations) in solid form. The device is implanted and stays in the tumor tissue for up to 8 days; after which the tumor/tissue surrounding the device is harvested with the device in place and formalin fixed and paraffin embedded (FFPE). The tumor tissue is analyzed adjacent to each drug well using multiplex IHC (mIHC) with antibodies that interrogate one or more of cleaved caspase activity, epithelial, mesenchymal, endothelial status, as well as immune composition and activity. […] Signal of individual markers are merged and the overlap is quantified.
(FIG. 8A). […] Mean intensity value of the CC3 signal was measured adjacent to the drug releasing reservoir and was normalized to control PEG only loaded reservoir. […] (n=3 regions of interest in one sample for (FIG. 8F) and n=3 drug loaded wells for (FIG. 8D); significance was calculated by a two-tailed t-test with equal variance. Of note, early microdevice studies validated each well to be a biological replicate due to heterogeneous nature of tumors in general (Jonas et al., Sci Transl. Med. 7, 284ra59, 2015). Microfluidic ex vivo platform maintains the viability of the primary mouse tumor tissue. […]

BT474 tumors = conditions: HER2+ luminal-like BT474 tumors, with NRG1b; cited from earlier work
JIMT1 = conditions: HER2+ basal-like JIMT1, with HGF; cited from earlier work

| SMILES | share of Neuropilin-1 positive cells that are cytotoxic neutrophils (Myeloperoxidase staining) ([1]; at the panobinostat well) [%] | infiltration of cytotoxic neutrophils [1] | infiltration of cytotoxic neutrophils ([1]; listed as Panobinostat) | infiltrate of cytotoxic neutrophils at the reservoir (MMTV-PyMT tumors) | proliferation under TKI in presence of neuregulin-1b (NRG1b) (BT474 tumors) | apoptosis under TKI in presence of hepatocyte growth factor (HGF) (JIMT1) |
| --- | --- | --- | --- | --- | --- | --- |
| Cc1[nH]c2ccccc2c1CCNCc1ccc(/C=C/C(=O)NO)cc1 [panobinostat] | ~85 | increased infiltration of cytotoxic neutrophils | robust increase of neutrophils | heavy infiltrate of cytotoxic neutrophils |  |  |
| CCOc1cc2ncc(C#N)c(Nc3ccc(OCc4ccccn4)c(Cl)c3)c2cc1NC(=O)/C=C/CN(C)C [Neratinib] |  |  |  |  | restores the proliferation | decreasing apoptosis to normal levels |
| CS(=O)(=O)CCNCc1ccc(-c2ccc3ncnc(Nc4ccc(OCc5cccc(F)c5)c(Cl)c4)c3c2)o1 [Lapatinib] |  |  |  |  | restores the proliferation | decreasing apoptosis to normal levels |
